Measurements: patent publication US20250066319A1, “NOVEL ACID ADDITION SALT AND CRYSTALLINE FORM OF (2R, 3S)-2-(3-(4,5-DICHLORO-1H-BENZO[d]IMIDAZOL-1-YL)PROPYL)PIPERIDIN-3-OL” (Daewoong Pharmaceutical Co., Ltd., priority 2021, published 2025)
Counter-ions that a name gives are not always drawn.

Assays:
Type in all cases: physicochemical
[1] = Hygroscopicity test (weight change in desiccators of constant relative humidity); parameters: scale not given here; settings: room temperature, one day
Procedure: The hygroscopicity tests of the acid addition salts prepared in Examples 1-1 to 1-6 and Comparative Example 1 were performed.
After one day, the change in weight was measured, then transferred to another desiccator and the previous experiment was repeated. At this time, for sorption analysis, the weight change was measured by moving the sample from a low-humidity desiccator to a high-humidity desiccator, and for desorption analysis, the weight change was measured by transferring the sample from a high-humidity desiccator with high humidity to a low-humidity desiccator.

[2] = Stability confirmation: severe test with respect to moisture, HPLC peak area of main component; settings: 93% RH, open beaker
Procedure: (§1) The acid addition salts prepared in some Examples and Comparative Examples were subjected to stability tests against high temperature and high humidity.
And, the severe tests with respect to moisture were performed by placing 50 mg of a sample in a 10 ml beaker, and measuring the content of impurities using HPLC (Azura, KNAUER, P6.1 1 L, DAD 6.1 L) after 1 week, 2 weeks, 4 weeks, and 8 weeks while storing the sample in a 93% RH desiccator in a state that the lid was not closed so that the sample has sufficient contact with the moisture in the air.
(§2) At a fixed time after the start of the test, one vial or beaker was taken out from each time point (the number of samples per test: n=1), and impurities were analyzed using HPLC under the conditions shown in Table 3 below. Then, the peak area was determined through integration for all the detected peaks, and then the relative peak area (%) for the main component was calculated and expressed as an average value.

[3] = Stability confirmation: severe test with respect to temperature, HPLC peak area of main component; settings: 60° C., relative humidity less than 10%
Procedure: as §1
Specifically, the severe tests with respect to temperature were performed by placing 50 mg of a sample in a vial, closing the lid, and then measuring the content of impurities using HPLC (Azura, KNAUER, P6.1 1 L, DAD 6.1 L) after 1 week, 2 weeks, 4 weeks, and 8 weeks while storing in a chamber at 60° C. and a relative humidity of less than 10%.
as §2

[4] = Differential scanning calorimetry analysis after severe test with respect to temperature; settings: high temperature condition (60° C.), 1 week and 8 weeks; Dihydrochloride
Procedure: For (2R,3S)-2-(3-(4,5-dichloro-1H-benzo[d]imidazol-1-yl)propyl)piperidin-3-ol monohydrochloride prepared in Example 1-1 and (2R,3S)-2-(3-(4,5-dichloro-1H-benzo[d]imidazol-1-yl)propyl)piperidin-3-ol dihydrochloride prepared in Comparative Example 1, each beaker was taken out 1 week and 8 weeks after the start of the test from the desiccator where the severe tests with respect to temperature were in progress, and the differential scanning calorimetry analysis was performed. At this time, the differential scanning calorimetry analysis was performed using a differential scanning calorimeter (DSC Q20, manufactured by TA Instruments) in a tightly closed pan under nitrogen purge at a scan rate of 10° C./min while raising the temperature from 20° C. to 300° C.

Molecule	weight change, desorption ([1]; 11% RH)	weight change, desorption ([1]; 33% RH)	weight change, desorption ([1]; 54% RH)	weight change, desorption ([1]; 75% RH)	weight change, sorption ([1]; 11% RH)	weight change, sorption ([1]; 33% RH)	weight change, sorption ([1]; 54% RH)	weight change, sorption ([1]; 75% RH)	weight change, sorption ([1]; 93% RH)	relative peak area for the main component (HPLC) ([2]; after 2 weeks) [%]	relative peak area for the main component (HPLC) ([2]; after 4 weeks) [%]	relative peak area for the main component (HPLC) ([2]; after 8 weeks) [%]	relative peak area for the main component (HPLC) ([2]; initial) [%]	relative peak area for the main component (HPLC) ([3]; after 2 weeks) [%]	relative peak area for the main component (HPLC) ([3]; after 4 weeks) [%]	relative peak area for the main component (HPLC) ([3]; after 8 weeks) [%]	relative peak area for the main component (HPLC) ([3]; initial) [%]	relative peak area for the main component (HPLC) ([2]; after 1 week) [%]	relative peak area for the main component (HPLC) ([3]; after 1 week) [%]	also measured
O[C@H]1CCCN[C@@H]1CCCn1cnc2c(Cl)c(Cl)ccc21 [Example 1-5, (2R,3S)-2-(3-(4,5-dichloro-1H-benzo[d]imidazol-1-yl)propyl)piperidin-3-ol Hemi-Maleate]	99.5	99.8	99.8	100.5	100	100	100.7	100.9	101.6	99.8	99.8	99.9	99.8	99.8	99.7	99.9	99.8	–	–	–
O[C@H]1CCCN[C@@H]1CCCn1cnc2c(Cl)c(Cl)ccc21 [Example 1-2, (2R,3S)-2-(3-(4,5-dichloro-1H-benzo[d]imidazol-1-yl)propyl)piperidin-3-ol Dioxalate I]	100	101.6	102	102.9	100	101.1	101.8	102.9	105.6	99.7	99.8	99.8	99.8	99.8	99.7	99.8	99.8	99.3	99.9	–
(2R,3S)-2-(3-(4,5-dichloro-1H-benzo[d]imidazol-1-yl)propyl)piperidin-3-ol Dioxalate II [Example 1-3]	100	100	100.2	100.8	100	100	100	101.3	101.3	99.8	99.9	99.9	99.8	99.8	99.8	99.9	99.8	99.7	99.9	–
O[C@H]1CCCN[C@@H]1CCCn1cnc2c(Cl)c(Cl)ccc21 [Comparative Example 1, (2R,3S)-2-(3-(4,5-dichloro-1H-benzo[d]imidazol-1-yl)propyl)piperidin-3-ol Dihydrochloride, reference compound]	–	–	–	–	–	–	–	–	–	–	–	–	–	–	–	–	–	–	–	change in differential scanning calorimetry analysis pattern [4]: shows a change in the differential scanning calorimetry analysis pattern; weight change, desorption ([1]; 11% RH, Dihydrochloride): 102.9; weight change, desorption ([1]; 33% RH, Dihydrochloride): 103.9; weight change, desorption ([1]; 54% RH, Dihydrochloride): 104.7; weight change, desorption ([1]; 75% RH, Dihydrochloride): 105.4; weight change, sorption ([1]; 33% RH, Dihydrochloride): 100.9; weight change, sorption ([1]; 54% RH, Dihydrochloride): 108; weight change, sorption ([1]; 75% RH, Dihydrochloride): 105.4; weight change, sorption ([1]; 93% RH, Dihydrochloride): 128; relative peak area for the main component (HPLC) ([2]; after 1 week, Dihydrochloride): 99.7%; relative peak area for the main component (HPLC) ([2]; after 2 weeks, Dihydrochloride): 99.7%; relative peak area for the main component (HPLC) ([2]; after 4 weeks, Dihydrochloride): 99.7%; relative peak area for the main component (HPLC) ([2]; after 8 weeks, Dihydrochloride): 99.7%; relative peak area for the main component (HPLC) ([2]; initial, Dihydrochloride): 99.6%; relative peak area for the main component (HPLC) ([3]; after 1 week, Dihydrochloride): 99.7%; relative peak area for the main component (HPLC) ([3]; after 2 weeks, Dihydrochloride): 99.7%; relative peak area for the main component (HPLC) ([3]; after 4 weeks, Dihydrochloride): 99.8%; relative peak area for the main component (HPLC) ([3]; after 8 weeks, Dihydrochloride): 99.7%; relative peak area for the main component (HPLC) ([3]; initial, Dihydrochloride): 99.6%
O[C@H]1CCCN[C@@H]1CCCn1cnc2c(Cl)c(Cl)ccc21 [Example 1-4, (2R,3S)-2-(3-(4,5-dichloro-1H-benzo[d]imidazol-1-yl)propyl)piperidin-3-ol Hemi-Oxalate]	101.0	101.0	101.9	103.2	100	101.0	101.6	101.9	105.4	–	–	–	–	–	–	–	–	–	–	–
